O=C(O)c1cccc(C(=O)O)c1
Conditions | solubility (mole fraction)
in ethanol, 294.35 K | 0.004
in ethanol, 296.95 K | 0.0042
in ethanol, 298.15 K | 0.0043
in ethanol, 300.55 K | 0.0047
in ethanol, 306.15 K | 0.0051
in ethanol, 308.85 K | 0.0053
in ethanol, 310.85 K | 0.0056
in ethanol, 313.65 K | 0.0063
in ethanol, 318.35 K | 0.0068
in ethanol, 320.45 K | 0.0072
in ethanol, 324.15 K | 0.0075
in ethanol, 326.75 K | 0.0078
in ethanol, 330.85 K | 0.0085
in ethanol, 331.75 K | 0.0089
in ethanol, 335.05 K | 0.0093
in isobutanol, 318.65 K | 0.0025
in isobutanol, 323.55 K | 0.0033
in isobutanol, 327.85 K | 0.004
in isobutanol, 331.05 K | 0.0047
in isobutanol, 336.15 K | 0.0055
in isobutanol, 340.05 K | 0.0061
in isobutanol, 343.05 K | 0.0066
in isobutanol, 346.65 K | 0.0072
in isobutanol, 348.95 K | 0.0079
in isobutanol, 351.05 K | 0.0085
in isobutanol, 355.05 K | 0.0092
in isobutanol, 356.05 K | 0.0098
in isobutanol, 360.75 K | 0.0108
in isopropanol, 304.65 K | 0.0046
in isopropanol, 308.45 K | 0.0052
in isopropanol, 310.95 K | 0.0057
in isopropanol, 316.45 K | 0.0063
in isopropanol, 319.45 K | 0.0068
in isopropanol, 322.15 K | 0.0075
in isopropanol, 324.85 K | 0.0081
in isopropanol, 326.95 K | 0.0086
in isopropanol, 331.35 K | 0.0095
in isopropanol, 334.35 K | 0.0103
in isopropanol, 337.55 K | 0.0111
in isopropanol, 342.25 K | 0.012
in isopropanol, 344.25 K | 0.0126
in methanol, 288.35 K | 0.0029
in methanol, 292.45 K | 0.0031
in methanol, 295.65 K | 0.0032
in methanol, 298.65 K | 0.0035
in methanol, 299.65 K | 0.0036
in methanol, 302.15 K | 0.004
in methanol, 305.25 K | 0.0044
in methanol, 308.45 K | 0.0047
in methanol, 311.85 K | 0.0049
in methanol, 313.45 K | 0.0051
in methanol, 316.65 K | 0.0056
in methanol, 319.25 K | 0.0056
in methanol, 320.15 K | 0.006
in methanol, 323.15 K | 0.0064
in methanol, 326.05 K | 0.0068
in methanol, 328.15 K | 0.0072
in n-butanol, 309.65 K | 0.0039
in n-butanol, 314.35 K | 0.0044
in n-butanol, 319.95 K | 0.0052
in n-butanol, 324.45 K | 0.0057
in n-butanol, 328.05 K | 0.0062
in n-butanol, 332.15 K | 0.007
in n-butanol, 335.25 K | 0.0076
in n-butanol, 338.05 K | 0.0081
in n-butanol, 340.95 K | 0.0091
in n-butanol, 345.45 K | 0.0099
in n-butanol, 347.95 K | 0.0104
in n-propanol, 303.75 K | 0.0033
in n-propanol, 305.65 K | 0.0039
in n-propanol, 311.65 K | 0.0043
in n-propanol, 315.35 K | 0.0049
in n-propanol, 318.85 K | 0.0054
in n-propanol, 322.55 K | 0.0059
in n-propanol, 326.65 K | 0.0064
in n-propanol, 330.45 K | 0.007
in n-propanol, 337.95 K | 0.0091
in n-propanol, 340.15 K | 0.0093
in n-propanol, 341.95 K | 0.01
in n-propanol, 345.95 K | 0.0113
in n-propanol, 348.15 K | 0.0122
in sec-butanol, 302.45 K | 0.0025
in sec-butanol, 306.35 K | 0.0033
in sec-butanol, 309.25 K | 0.004
in sec-butanol, 314.15 K | 0.0049
in sec-butanol, 317.65 K | 0.0057
in sec-butanol, 322.15 K | 0.0071
in sec-butanol, 326.25 K | 0.0085
in sec-butanol, 331.35 K | 0.0098
in sec-butanol, 339.35 K | 0.0117
in sec-butanol, 342.35 K | 0.0126
in tert-butanol, 303.65 K | 0.0026
in tert-butanol, 307.95 K | 0.0038
in tert-butanol, 312.15 K | 0.0047
in tert-butanol, 315.35 K | 0.0059
in tert-butanol, 318.35 K | 0.0073
in tert-butanol, 321.15 K | 0.0091
in tert-butanol, 324.55 K | 0.0106
in tert-butanol, 328.75 K | 0.0125
in tert-butanol, 331.65 K | 0.0141
in tert-butanol, 334.95 K | 0.016
in tert-butanol, 338.45 K | 0.0177
in tert-butanol, 342.65 K | 0.0194
in tert-butanol, 345.65 K | 0.0203

Source: BigSolDB 2.1
